From ChEMBL document CHEMBL1137368, “Antitumor activity of substituted E-3-(3,4,5-trimethoxybenzylidene)-1,3-dihydroindol-2-ones1” (2006)
Counter-ions that a name gives are not always drawn.

Legend:
Format in all cases: functional
Settings in all cases: Homo sapiens; for TGI: read-out: pTGI (converted)
[1] = test system: Panel leukemia (Carcinoma cell lines); assay: Anticancer activity against leukemia cancer cell lines of NCI60 panel
[2] = test system: Panel ovarian (Carcinoma cell lines); assay: Anticancer activity against ovarian cancer cell lines of NCI60 panel
[3] = test system: Panel renal (Carcinoma cell lines); assay: Anticancer activity against renal cancer cell lines of NCI60 panel
[4] = test system: Panel breast (Carcinoma cell lines); assay: Anticancer activity against breast cancer cell lines of NCI60 panel
[5] = test system: Panel CNS (Carcinoma cell lines); assay: Anticancer activity against CNS cancer cell lines of NCI60 panel
[6] = test system: Panel colon (Carcinoma cell lines); assay: Anticancer activity against colon cancer cell lines of NCI60 panel
[7] = test system: Panel melanoma (Carcinoma cell lines); assay: Anticancer activity against melanoma cancer cell lines of NCI60 panel
NSCLC = assay: Anticancer activity against NSCLC cancer cell lines of NCI60 panel
[8] = test system: Panel prostate (Carcinoma cell lines); assay: Anticancer activity against prostate cancer cell lines of NCI60 panel

SMILES | GI50 [1] | TGI [1] | GI50 [2] | TGI [2] | GI50 [3] | TGI [3] | GI50 [4] | TGI [4] | GI50 [5] | TGI [5] | GI50 [6] | TGI [6] | GI50 [7] | TGI [7] | GI50 (NSCLC) | TGI (NSCLC) | GI50 [8] | LC50 [2] | LC50 [3] | LC50 [5] | other results
COc1cc(/C=C2/C(=O)N(C)c3ccccc32)cc(OC)c1OC | 7.24 µM | 70.8 µM | 18.2 µM | 81.3 µM | 12.3 µM | 61.7 µM | 19.5 µM | 77.6 µM | 9.55 µM | 81.3 µM | 13.5 µM | 61.7 µM | 17.4 µM | 43.7 µM | 18.2 µM | 67.6 µM | 10.5 µM | – | – | – | –
COc1cc(/C=C2/C(=O)Nc3ccc(Cl)cc32)cc(OC)c1OC | 8.71 µM | – | 17 µM | 77.6 µM | 15.8 µM | 64.6 µM | 15.8 µM | 56.2 µM | 17.4 µM | 56.2 µM | 8.32 µM | 93.3 µM | 28.2 µM | – | 20.9 µM | 74.1 µM | 2.95 µM | – | – | – | –
COc1cc(/C=C2/C(=O)Nc3cccc(Cl)c32)cc(OC)c1OC | 2.4 µM | 16.2 µM | 89.1 µM | – | 61.7 µM | – | 85.1 µM | – | 61.7 µM | 97.7 µM | – | – | – | – | 75.9 µM | – | – | – | – | – | –
COc1ccc2c(c1)/C(=C\c1cc(OC)c(OC)c(OC)c1)C(=O)N2 | 0.0871 µM | 11.2 µM | 0.676 µM | 15.5 µM | 0.575 µM | 19.1 µM | 0.398 µM | 14.8 µM | 0.417 µM | 12.6 µM | 0.182 µM | 32.4 µM | 0.891 µM | 41.7 µM | 1.12 µM | 58.9 µM | 0.692 µM | 41.7 µM | 91.2 µM | 95.5 µM | LC50 [4]: 50.1 µM; LC50 [6]: 83.2 µM; LC50 [7]: 95.5 µM
COc1cc(/C=C2/C(=O)Nc3ccccc32)cc(OC)c1OC | 7.59 µM | 87.1 µM | 24.5 µM | 95.5 µM | 18.6 µM | 75.9 µM | 19.1 µM | 77.6 µM | 12.3 µM | 85.1 µM | 15.1 µM | 75.9 µM | 20 µM | 81.3 µM | 18.6 µM | 85.1 µM | 18.6 µM | – | – | – | –
COc1cc(/C=C2/C(=O)N(c3ccccc3)c3ccccc32)cc(OC)c1OC | 2.29 µM | 14.1 µM | 10 µM | 32.4 µM | 5.75 µM | 23.4 µM | 8.32 µM | 53.7 µM | 6.03 µM | 30.9 µM | 5.75 µM | 26.9 µM | 7.41 µM | 20.9 µM | 9.33 µM | 36.3 µM | 3.16 µM | 83.2 µM | 64.6 µM | 72.4 µM | LC50 [6]: 67.6 µM; LC50 [7]: 52.5 µM; LC50 (NSCLC): 83.2 µM; TGI [8]: 16.2 µM
CC[C@]1(O)C[C@H]2CN(CCc3c([nH]c4ccccc34)[C@@](C(=O)OC)(c3cc4c(cc3OC)N(C=O)[C@H]3[C@@](O)(C(=O)OC)[C@H](OC(C)=O)[C@]5(CC)C=CCN6CC[C@]43[C@@H]65)C2)C1 [VINCRISTINE SULFATE] | 0.1 µM | 15.8 µM | 0.316 µM | 20 µM | 0.316 µM | 20 µM | 0.316 µM | 7.94 µM | 0.126 µM | 6.31 µM | 0.1 µM | 3.98 µM | 0.158 µM | 7.94 µM | 0.251 µM | 15.8 µM | 0.126 µM | – | – | – | TGI [8]: 6.31 µM
COc1cc(/C=C2/C(=O)Nc3ccc(O)cc32)cc(OC)c1OC | 3.02 µM | 30.9 µM | 14.1 µM | 47.9 µM | 14.1 µM | 44.7 µM | 9.12 µM | 52.5 µM | 8.71 µM | 41.7 µM | 12.3 µM | 47.9 µM | 10 µM | 27.5 µM | 11.7 µM | 40.7 µM | 2.4 µM | 93.3 µM | 83.2 µM | 91.2 µM | LC50 [4]: 97.7 µM; LC50 [6]: 83.2 µM; LC50 [7]: 69.2 µM; LC50 (NSCLC): 89.1 µM; TGI [8]: 19.1 µM
COc1cc(/C=C2/C(=O)Nc3ccc(F)cc32)cc(OC)c1OC | 14.1 µM | – | 44.7 µM | – | 34.7 µM | – | 9.55 µM | 87.1 µM | 33.1 µM | 85.1 µM | 30.9 µM | – | 37.2 µM | – | 26.9 µM | 91.2 µM | 27.5 µM | – | – | – | –
COc1cc2c(cc1C)NC(=O)/C2=C/c1cc(OC)c(OC)c(OC)c1 | 18.2 µM | 52.5 µM | 75.9 µM | – | 55 µM | 89.1 µM | – | 93.3 µM | 41.7 µM | 83.2 µM | 85.1 µM | – | 74.1 µM | – | 57.5 µM | 81.3 µM | – | – | – | – | –
